Our source for the IC90, IC50 and activity values is US9174949B2, “Hedgehog inhibitors” (SELEXAGEN THERAPEUTICS, INC., priority 2010, dated 2015).

The test system of one assay is hedgehog pathway signaling. Briefly: Method A: cell differentiation assay, sonic hedgehog stimulated alkaline phosphatase activity. The class given is cell-based. Particulars: Mus musculus, Shh-N 2 μg/mL, 72 hours, C3H10T1/2 or M2-10B4 cells. On the procedure:
The ability of compounds described in the current invention to inhibit hedgehog pathway signaling was determined from the following cell differentiation assays (Method A, or Modified Method A as described below) in which cellular alkaline phosphatase activity is assessed in the presence of control vehicle or test compound, as previously described in the literature (Wu et al., Chemistry & Biology, 11: 1229-1238, 2004; Couve-Privat, et al., Cancer Research, 64; 3559-3565, 2004; Dwyer et al., J. Biological Chemistry, 282: 8959-8968, 2007) with modifications as described below.
Method A: Mouse C3H10T1/2 (CCL-226™) or M2-10B4 (CRL-1972™) cells obtained from the American Type Tissue Culture Collection (Maryland, USA) were cultured to 60-80% confluence in Dulbecco's modified Eagle's Medium (C3H10T1/2 cells) containing heat-inactivated 10% fetal bovine serum or RPMI-1640 media (M2-10B4 cells) containing heat-inactivated 10% fetal bovine serum. Cell cultures were maintained in 10 U/mL penicillin, 100 μg/mL streptomycin and 2 mM glutamine. Cells were then trypsinized, counted and plated into 96-well microtiter plates prior to incubation overnight at 37° C. in 5% CO2. […] Similarly, an IC90 was determined. […]
For `Cc1nc(-c2ccc(NC(=O)c3ccc(S(C)(=O)=O)cc3Cl)cc2)cs1` [Example 4, 2-chloro-4-(methylsulfonyl)-N-(4-(2-methylthiazol-4-yl)phenyl)benzamide], the concentration for an effect of 90% (IC90) was 300 nM.

Still in this assay, the particulars now being: Mus musculus, Shh-N 2 μg/mL, 72 hours, C3H10T1/2 or M2-10B4 cells, read-out: IC50 (50% inhibition of sonic hedgehog stimulated alkaline phosphatase activity).
Consider `Cc1nc(-c2ccc(NC(=O)c3ccc(S(C)(=O)=O)cc3Cl)cc2)cs1` [Example 4, 2-chloro-4-(methylsulfonyl)-N-(4-(2-methylthiazol-4-yl)phenyl)benzamide], for which the half-inhibitory concentration (IC50) amounted to 63 nM.

The test system of another assay is hedgehog pathway signaling. Briefly: Modified Method A: purmorphamine stimulated alkaline phosphatase activity in C3H10T1/2 cells. The class given is cell-based. As to conditions: Mus musculus, C3H 10T1/2, compound at 500 nM, 100 nM purmorphamine, 72 hours, read-out: Activity Ranking (percent activity compared to control alkaline phosphatase activity).
For `CS(=O)(=O)c1ccc(C(=O)Nc2ccc(-c3csc(CO)n3)cc2)c(Cl)c1` [Example 13, 2-chloro-N-(4-(2-(hydroxymethyl)thiazol-4-yl)phenyl)-4-(methylsulfonyl)benzamide], the activity at 0.5 µM was in the range of 51 to 75%.
Regarding `Cc1nc(-c2ccc(NC(=O)c3ccccc3Cl)cc2)cs1` [Example 14], the activity at 0.5 µM lay within 0 to 25%.
For the compound `Cc1nc(-c2ccc(NC(=O)c3ccc(C#N)cc3)cc2)cs1` [Example 18], the activity at 0.5 µM was 26 to 50%.
On to `COc1ccc(C(=O)Nc2ccc(-c3csc(C)n3)cc2)cc1` [Example 3], for which the activity at 0.5 µM lay within 0 to 25%.
As for `CC(C)(O)c1nc(-c2ccc(NC(=O)c3ccc(S(C)(=O)=O)cc3Cl)cc2)cs1` [Example 12, 2-chloro-N-(4-(2-(2-hydroxypropan-2-yl)thiazol-4-yl)phenyl)-4-(methylsulfonyl)benzamide], the activity at 0.5 µM lay in the range of 26 to 50%.
Turning to `COc1cc(C(=O)Nc2ccc(-c3csc(C)n3)cc2)cc(OC)c1OC` [Example 2], the activity at 0.5 µM fell in the range of 51 to 75%.
In the case of `O=C(Nc1ccc(-c2cscn2)cc1)c1ccccc1Cl` [Example 10, 2-chloro-N-(4-(thiazol-4-yl)phenyl)benzamide], the activity at 0.5 µM was in the range of 26 to 50%.
On to `COc1ccc(C(=O)Nc2ccc(-c3csc(C)n3)cc2)c(CN2CCOCC2)c1` [Example 5], for which the activity at 0.5 µM lay within 0 to 25%.
The same measure, in the same setting: for `Cc1nc(-c2ccc(NC(=O)c3ccc(Cl)cc3Cl)cc2)cs1` [Example 1, 2,4-dichloro-N-(4-(2-methylthiazol-4-yl)phenyl)benzamide] the value was 0 to 25%; for `Cc1nc(-c2ccc(NC(=O)c3ccc(S(C)(=O)=O)cc3Cl)cc2)co1` [Example 6], 26 to 50%; for `COc1ccc(C(=O)Nc2ccc(-c3csc(C)n3)cc2)c(Cl)c1` [Example 8], 0 to 25%.
Take `Cc1nc(-c2ccc(N(C)C(=O)c3ccc(S(C)(=O)=O)cc3Cl)cc2)cs1` [Example 9, 2-chloro-N-methyl-4-(methylsulfonyl)-N-(4-(2-methylthiazol-4-yl)phenyl)benzamide]: the activity at 0.5 µM lay within 76 to 100%.
Same read-out and setting: with `COc1ccc(C(=O)Nc2ccc(-c3csc(C)n3)cc2)c(F)c1` [Example 17] the figure was 0 to 25%.
Take `CS(=O)(=O)c1ccc(C(=O)Nc2ccc(-c3cscn3)cc2)c(Cl)c1` [Example 11, 2-chloro-(4-methylsulfonyl)-N-(4-(thiazol-4-yl)phenyl)benzamide]: the activity at 0.5 µM lay within 26 to 50%.
Regarding `Cc1nc(-c2ccc(NC(=O)c3ccc(S(C)(=O)=O)cc3Cl)cc2)cs1` [Example 4, 2-chloro-4-(methylsulfonyl)-N-(4-(2-methylthiazol-4-yl)phenyl)benzamide], the activity at 0.5 µM is 0 to 25%.
For the compound `Cc1nc(-c2ccc(NC(=O)c3ccc(S(C)(=O)=O)cc3Cl)cc2Cl)cs1` [Example 7, 2-chloro-N-(3-chloro-4-(2-methylthiazol-4-yl)phenyl)-4-(methylsulfonyl)benzamide], the activity at 0.5 µM was 51 to 75%.
The same measure, in the same setting: with `Cc1nc(-c2ccc(NC(=O)c3ccccc3S(C)(=O)=O)cc2)cs1` [Example 15] the figure was 76 to 100%.
As to `COc1ccc(C(=O)Nc2ccc(-c3csc(C)n3)cc2)c(C)c1` [Example 16], the activity at 0.5 µM lay in the range of 0 to 25%.

One may read the IC90 as the point of the concentration-response curve where the effect stands at 90%. What is called IC50 is the concentration at which inhibition is half-maximal.
